In PMC5800971 (European journal of medicinal chemistry, 2017):

What was measured:
[1] = system: breast cancer cell line MDA-MB-231; experiment: Alamar Blue cytotoxicity assay; type: cell-based; settings: for fold less potent than ipomoeassin F: MDA-MB-231
[2] = system: MCF7 breast cancer cell line; experiment: Colorimetric MTT cytotoxicity assay; type: cell-based
[3] = system: A2780 human ovarian cancer cell line; experiment: Cytotoxicity of ipomoeassins A-F; type: cell-based; settings: from Table 1 values
[4] = system: A2780 human ovarian cancer cell line; settings: read-out: IC50 (nM) A2780; A2780 human ovarian cancer cells; cited from earlier work
[5] = system: human breast epithelial cell line MCF-10A; experiment: Alamar Blue cytotoxicity assay; type: cell-based; settings: MCF-10A vs MDA-MB-231 / MCF7

Q: With `C/C=C(\C)C(=O)O[C@@H]1[C@@H](O)[C@@H]2O[C@H]3[C@H](O[C@@H](CCCCC)CCCCCOC(=O)CCC(=O)OC[C@@H](O2)[C@H]1OC(=O)/C=C/c1ccccc1)O[C@H](C)[C@H](OC(C)=O)[C@@H]3O` [Analogue 1] as the compound, how does the “fold less potent than ipomoeassin F” value [1] read?
A: about 4 fold

Q: And the “fold less potent than ipomoeassin F” value [2]?
A: ~2 fold

Q: For `C/C=C(\C)C(=O)O[C@@H]1[C@@H](O)[C@@H]2O[C@H]3[C@H](O[C@@H](CCC)CCCCC[C@H](OC(C)=O)C(=O)CCC(=O)OC[C@@H](O2)[C@H]1OC(=O)/C=C/c1ccccc1)O[C@H](C)[C@H](O)[C@@H]3O` [Ipomoeassin E], which “fold activity loss, R1 H to OAc (B vs. E)” value ([3]; A2780) is on record?
A: 8 fold

Q: What about the IC50 [4] of the same compound?
A: 3300 nM

Q: Which “fold activity difference between ipomoeassin C and ipomoeassin A/D” value [3] does the source give for `C/C=C(\C)C(=O)O[C@@H]1[C@@H](O)[C@@H]2O[C@H]3[C@H](O[C@@H](CCC)CCCCC[C@H](O)C(=O)CCC(=O)OC[C@@H](O2)[C@H]1OC(=O)/C=C/c1ccccc1)O[C@H](C)[C@H](OC(C)=O)[C@@H]3O` [Ipomoeassin C] here?
A: up to 80 fold

Q: For `C/C=C(\C)C(=O)O[C@@H]1[C@@H](O)[C@@H]2O[C@H]3[C@H](O[C@@H](CCCCC)C/C=C\CCOC(=O)CCC(=O)OC[C@@H](O2)[C@H]1OC(=O)/C=C/c1ccccc1)O[C@H](C)[C@H](OC(C)=O)[C@@H]3O` [Analogue 24], which “fold more potent than the E-counterpart 23” value ([1]; breast cancer cell lines of Table 2 (MDA-MB-231, MCF7)) is on record?
A: ~ 3 fold

Q: For `C/C=C(\C)C(=O)O[C@@H]1[C@@H](O)[C@@H]2O[C@H]3[C@H](O[C@@H](CCC)CCCCC[C@H](OC(C)=O)C(=O)CCC(=O)OC[C@@H](O2)[C@H]1OC(=O)/C=C/c1ccccc1)O[C@H](C)[C@H](OC(C)=O)[C@@H]3O` [Ipomoeassin D], which “fold potency enhancement, R1 H to OAc (A vs. D)” value ([3]; A2780) is on record?
A: up to 14 fold

Q: Which results are given for `C/C=C(\C)C(=O)O[C@@H]1[C@@H](O)[C@@H]2O[C@H]3[C@H](O[C@@H](CCCCC)CCCCCN(C)C(=O)CCC(=O)OC[C@@H](O2)[C@H]1OC(=O)/C=C/c1ccccc1)O[C@H](C)[C@H](OC(C)=O)[C@@H]3O` [Analogue 21]?
A: fold less potent than ipomoeassin F [1]: ≤ 2 fold; fold less potent than ipomoeassin F [2]: ≤ 2 fold

Q: For `C/C=C(\C)C(=O)O[C@@H]1[C@@H](O)[C@@H]2O[C@H]3[C@H](O[C@@H](CCCCC)CCCCOC(=O)CCC(=O)OC[C@@H](O2)[C@H]1OC(=O)/C=C/c1ccccc1)O[C@H](C)[C@H](OC(C)=O)[C@@H]3O` [Analogue 25], which “fold activity loss compared to 1” value ([1]; MDA-MB-231 (printed MBA-BD-231)) is on record?
A: 9 fold

Q: And the “fold activity loss compared to 1” value [2]?
A: 9 fold

Q: Which “selectivity between tumor and non-tumor cells” value [5] does the source give for `C/C=C(\C)C(=O)O[C@@H]1[C@@H](O)[C@@H]2O[C@H]3[C@H](O[C@@H](CCCCC)CCCCCNC(=O)CCC(=O)OC[C@@H](O2)[C@H]1OC(=O)/C=C/c1ccccc1)O[C@H](C)[C@H](OC(C)=O)[C@@H]3O` [Analogue 2] here?
A: slight selectivity towards MDA-MB-231 cells
